Results from US20260347364A1, “PYRAZOLO[4,3-F]QUINAZOLINE DERIVATIVES AS MODULATORS OF G12D MUTANT KRAS USEFUL FOR THE TREATMENT OF CANCER” (JAZZ PHARMACEUTICALS IRELAND LTD., priority 2023, published 2026).

What was measured:
KRAS G12D = biological target: T1, KRAS G12D (Homo sapiens, UniProt P01116, G12D); assay: HTRF nucleotide exchange assay, KRAS G12D; format: biochemical; settings: class symbols; for IC50: HTRF nucleotide exchange assay (NEA)
T1 construct: aa1-188 KRAS WT, HRAS WT, NRAS WT, or KRAS containing the G12D

KRAS WT = biological target: T2, KRAS WT (Homo sapiens, UniProt P01116); assay: HTRF nucleotide exchange assay, KRAS WT; format: biochemical; settings: class symbols; for IC50: HTRF nucleotide exchange assay (NEA)
T2 construct: aa1-188 KRAS WT

| Compound | IC50 (KRAS G12D) | IC50 (KRAS WT) | KRAS^G12D NEA (KRAS G12D) | KRAS^WT NEA (KRAS WT) |
| --- | --- | --- | --- | --- |
| CCc1c(F)ccc2cc(O)cc(-c3c(C)c4nc(OC[C@@]56CCCN5C[C@H](F)C6)nc(N5CCC[C@@](C)(O)C5)c4c4cn(C)nc34)c12 [Example 95, (3R)-1-[4-(8-ethyl-7-fluoro-3-hydroxy-1-naphthyl)-2,5-dimethyl-7-[[(2R,8S)-2-fluoro-1,2,3,5,6,7-hexahydropyrrolizin-8-yl]methoxy]pyrazolo[4,3-f]quinazolin-9-yl]-3-methyl-piperidin-3-ol] | ≤ 10 nM | ≤ 10 nM | – | – |
| CCc1c(F)ccc2cc(O)cc(-c3cc4nc(OC[C@@H]5CCN5)nc(N5CCCn6nc(C(=O)N(C)C)cc6C5)c4c4cn(C)nc34)c12 [Example 50, 5-[4-(8-ethyl-7-fluoro-3-hydroxy-1-naphthyl)-2-methyl-7-[[(2S)-azetidin-2-yl]methoxy]pyrazolo[4,3-f]quinazolin-9-yl]-N,N-dimethyl-4,6,7,8-tetrahydropyrazolo[1,5-a][1,4]diazepine-2-carboxamide] | ≤ 10 nM | 10 to 100 nM | – | – |
| Cn1cc2c(n1)c(-c1ccc(F)c3sc(N)c(C#N)c13)cc1nc(OC[C@@]34CCCN3C[C@H](F)C4)nc(N3C4CCC3CN(CCCO)C4)c12 [Example 90, 2-amino-7-fluoro-4-[7-[[(2R,8S)-2-fluoro-1,2,3,5,6,7-hexahydropyrrolizin-8-yl]methoxy]-9-[3-(3-hydroxypropyl)-3,8-diazabicyclo[3.2.1]octan-8-yl]-2-methyl-pyrazolo[4,3-f]quinazolin-4-yl]benzothiophene-3-carbonitrile] | – | – | D (<49% inhibition at 10 μM) | D (<49% inhibition at 10 μM) |
| CCc1c(F)ccc2cc(O)cc(-c3c(F)c4nc(OCC5COCCN5C)nc(N5CCOCC(C)(O)C5)c4c4cn(C)nc34)c12 (stereo not shown) [Example 232, 4-[4-(8-ethyl-7-fluoro-3-hydroxy-1-naphthyl)-5-fluoro-2-methyl-7-[(4-methylmorpholin-3-yl)methoxy]pyrazolo[4,3-f]quinazolin-9-yl]-6-methyl-1,4-oxazepan-6-ol] | 10 to 100 nM | 10 to 100 nM | – | – |
| CCc1c(F)ccc2cc(O)cc(-c3cc4nc(OCC5(CN6CCCC6)CC5)nc(N5CCCn6nc(C(=O)N(C)C)cc6C5)c4c4cn(C)nc34)c12 [Example 52] | ≤ 10 nM | 10 to 100 nM | – | – |
| CCc1c(F)ccc2cc(O)cc(-c3c(F)c4nc(OC[C@]5(C)CCCN5C)nc(N5CCOCC(C)(O)C5)c4c4cn(C)nc34)c12 (stereo partly drawn) [Example 161, 4-[4-(8-ethyl-7-fluoro-3-hydroxy-1-naphthyl)-5-fluoro-2-methyl-7-[[(2S)-1,2-dimethylpyrrolidin-2-yl]methoxy]pyrazolo[4,3-f]quinazolin-9-yl]-6-methyl-1,4-oxazepan-6-ol] | ≤ 10 nM | ≤ 10 nM | – | – |
| Cc1cc2[nH]ncc2c(-c2cc3nc(OC[C@@]45CCCN4C[C@H](F)C5)nc(N4CCCn5nc(C(=O)N(C)C)cc5C4)c3c3cn(C)nc23)c1C1CC1 [Example 74, 5-[4-(5-cyclopropyl-6-methyl-1H-indazol-4-yl)-2-methyl-7-[[(2R,8S)-2-fluoro-1,2,3,5,6,7-hexahydropyrrolizin-8-yl]methoxy]pyrazolo[4,3-f]quinazolin-9-yl]-N,N-dimethyl-4,6,7,8-tetrahydropyrazolo[1,5-a][1,4]diazepine-2-carboxamide] | ≤ 10 nM | 10 to 100 nM | – | – |
| CCc1c(F)ccc2cc(O)cc(-c3c(F)c4nc(OCC5(CN(C)C)CCC5)nc(N5CCOCC(C)(O)C5)c4c4cn(C)nc34)c12 (stereo not shown) [Example 222, 4-[7-[[1-[(dimethylamino)methyl]cyclobutyl]methoxy]-4-(8-ethyl-7-fluoro-3-hydroxy-1-naphthyl)-5-fluoro-2-methyl-pyrazolo[4,3-f]quinazolin-9-yl]-6-methyl-1,4-oxazepan-6-ol] | ≤ 10 nM | ≤ 10 nM | – | – |
| CCc1c(F)ccc2cc(O)cc(-c3cc4nc(OCC5(CN6CCOCC6)CC5)nc(N5CCCn6nc(C(=O)N(C)C)cc6C5)c4c4cn(C)nc34)c12 [Example 69, 5-[4-(8-ethyl-7-fluoro-3-hydroxy-1-naphthyl)-2-methyl-7-[[1-(morpholinomethyl)cyclopropyl]methoxy]pyrazolo[4,3-f]quinazolin-9-yl]-N,N-dimethyl-4,6,7,8-tetrahydropyrazolo[1,5-a][1,4]diazepine-2-carboxamide] | ≤ 10 nM | 10 to 100 nM | – | – |
| CCc1c(F)ccc2cc(O)cc(-c3cc4nc(OC[C@@]56CCCN5C[C@H](F)C6)nc(N5CCOC[C@](C)(O)C5)c4c4cn(C)nc34)c12 [Example 41, (6R)-4-[4-(8-ethyl-7-fluoro-3-hydroxy-1-naphthyl)-2-methyl-7-[[(2R,8S)-2-fluoro-1,2,3,5,6,7-hexahydropyrrolizin-8-yl]methoxy]pyrazolo[4,3-f]quinazolin-9-yl]-6-methyl-1,4-oxazepan-6-ol] | 10 to 100 nM | 10 to 100 nM | – | – |
| CCc1c(F)ccc2cc(O)cc(-c3cc4nc(OC[C@@]56CCCN5C[C@H](F)C6)nc(N5CCCn6nc(C(=O)N7CCOCC7)cc6C5)c4c4cn(C)nc34)c12 [Example 24, [5-[4-(8-ethyl-7-fluoro-3-hydroxy-1-naphthyl)-2-methyl-7-[[(2R,8S)-2-fluoro-1,2,3,5,6,7-hexahydropyrrolizin-8-yl]methoxy]pyrazolo[4,3-f]quinazolin-9-yl]-4,6,7,8-tetrahydropyrazolo[1,5-a][1,4]diazepin-2-yl]-morpholino-methanone] | ≤ 10 nM | ≤ 10 nM | – | – |
| CCc1c(F)ccc2cc(O)cc(-c3c(F)c4nc(OCC5(CN6CCC7(CCOCC7)C6)CC5)nc(N5CCOCC(C)(O)C5)c4c4cn(C)nc34)c12 (stereo not shown) [Example 228, 4-[4-(8-ethyl-7-fluoro-3-hydroxy-1-naphthyl)-5-fluoro-2-methyl-7-[[1-(8-oxa-2-azaspiro[4.5]decan-2-ylmethyl)cyclopropyl]methoxy]pyrazolo[4,3-f]quinazolin-9-yl]-6-methyl-1,4-oxazepan-6-ol] | ≤ 10 nM | ≤ 10 nM | – | – |
| CCc1c(F)ccc2cc(O)cc(-c3cc4nc(OC[C@@]56CCCN5C[C@H](F)C6)nc(N5CCOC(CO)C5)c4c4cn(C)nc34)c12 (stereo partly drawn) [Example 115, 5-ethyl-6-fluoro-4-[9-[2-(hydroxymethyl)morpholin-4-yl]-2-methyl-7-[[(2R,8S)-2-fluoro-1,2,3,5,6,7-hexahydropyrrolizin-8-yl]methoxy]pyrazolo[4,3-f]quinazolin-4-yl]naphthalen-2-ol] | ≤ 10 nM | ≤ 10 nM | – | – |
| Cc1cc(N)nc(-c2cc3nc(OC[C@@]45CCCN4C[C@H](F)C5)nc(N4CCCn5nc(C(=O)N(C)C)cc5C4)c3c3cn(C)nc23)c1C(F)(F)F [Example 77, 5-[4-[6-amino-4-methyl-3-(trifluoromethyl)-2-pyridyl]-7-[[(2R,8S)-2-fluoro-1,2,3,5,6,7-hexahydropyrrolizin-8-cyl]methoxy]-2-methyl-pyrazolo[4,3-f]quinazolin-9-yl]-N,N-dimethyl-4,6,7,8-tetrahydropyrazolo[1,5-a][1,4]diazepine-2-carboxamide] | 100 to 10000 nM | 100 to 10000 nM | – | – |
| CN(C)C(=O)c1cc2n(n1)CCCN(c1nc(OC[C@@]34CCCN3C[C@H](F)C4)nc3cc(-c4ccc(F)c5sc(N)c(C#N)c45)c4nn(C)cc4c13)C2 [Example 81, 5-[4-(2-amino-3-cyano-7-fluoro-benzothiophen-4-yl)-7-[[(2R,8S)-2-fluoro-1,2,3,5,6,7-hexahydropyrrolizin-8-yl]methoxy]-2-methyl-pyrazolo[4,3-f]quinazolin-9-yl]-N,N-dimethyl-4,6,7,8-tetrahydropyrazolo[1,5-a][1,4]diazepine-2-carboxamide] | ≤ 10 nM | 10 to 100 nM | – | – |
| CCc1c(F)ccc2cc(O)cc(-c3c(F)c4nc(OCC5(C)CC(OC)CN5)nc(N5CCOCC(C)(O)C5)c4c4cn(C)nc34)c12 (stereo not shown) [Example 151, 4-[4-(8-ethyl-7-fluoro-3-hydroxy-1-naphthyl)-5-fluoro-7-[(4-methoxy-2-methyl-pyrrolidin-2-yl)methoxy]-2-methyl-pyrazolo[4,3-f]quinazolin-9-yl]-6-methyl-1,4-oxazepan-6-ol] | ≤ 10 nM | ≤ 10 nM | – | – |
| CCc1c(F)ccc2cc(O)cc(-c3c(F)c4nc(OC[C@@]56CCCN5C[C@H](F)C6)cc(N5CCCOCC5)c4c4cn(C)nc34)c12 [Example 45, 5-ethyl-6-fluoro-4-[5-fluoro-2-methyl-9-(1,4-oxazepan-4-yl)-7-[[(2R,8S)-2-fluoro-1,2,3,5,6,7-hexahydropyrrolizin-8-yl]methoxy]pyrazolo[4,3-f]quinolin-4-yl]naphthalen-2-ol] | 100 to 10000 nM | 100 to 10000 nM | – | – |
| CCc1c(F)ccc2cc(O)cc(-c3cc4nc(OCC5CCCN5C)nc(N5CCCOCC5)c4c4cn(C)nc34)c12 (stereo not shown) [Example 18, 5-ethyl-6-fluoro-4-[2-methyl-7-[(1-methylpyrrolidin-2-yl)methoxy]-9-(1,4-oxazepan-4-yl)pyrazolo[4,3-f]quinazolin-4-yl]naphthalen-2-ol] | 10 to 100 nM | 10 to 100 nM | – | – |
| C#Cc1c(F)ccc2cc(O)cc(-c3c(F)c4nc(OC[C@@]56CCCN5C[C@H](F)C6)nc(N5CCCn6nc(C(=O)N(C)C)cc6C5)c4c4cn(C)nc34)c12 [Example 93, 5-[4-(8-ethynyl-7-fluoro-3-hydroxy-1-naphthyl)-5-fluoro-2-methyl-7-[[(2R,8S)-2-fluoro-1,2,3,5,6,7-hexahydropyrrolizin-8-yl]methoxy]pyrazolo[4,3-f]quinazolin-9-yl]-N,N-dimethyl-4,6,7,8-tetrahydropyrazolo[1,5-a][1,4]diazepine-2-carboxamide] | ≤ 10 nM | ≤ 10 nM | – | – |
| CCc1c(F)ccc2cc(O)cc(-c3cc4nc(OC[C@]5(C)CCCN5)nc(N5CCCn6nc(C(=O)N(C)C)cc6C5)c4c4cn(C)nc34)c12 [Example 53, 5-[4-(8-ethyl-7-fluoro-3-hydroxy-1-naphthyl)-2-methyl-7-[[(2S)-2-methylpyrrolidin-2-yl]methoxy]pyrazolo[4,3-f]quinazolin-9-yl]-N,N-dimethyl-4,6,7,8-tetrahydropyrazolo[1,5-a][1,4]diazepine-2-carboxamide] | 100 to 10000 nM | – | – | D (<49% inhibition at 10 μM) |
